Laboratory results taken from patent US20240116951A1, “HETEROCYCLIC COMPOUNDS AND USES THEREOF” (Kumquat Biosciences Inc., priority 2022, published 2024).
pIC50: −log10 of the molar value.

Experiments:
Assay type in all cases: binding
[1] = target: T1, KRAS WT (Homo sapiens, UniProt P01116); test: HTRF assay of wildtype K-Ras interaction with SOS1 (PPI-HTRF); settings: HTRF, 5 nM KRAS WT; read-out: PPI-HTRF-5 nM KRAS WT
T1 construct: made in house; host or cells: E. coli, e.g. BL21 (DE3)
Summary of the method: (§1)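 HTRF readout of GST-tagged K-Ras (WT or mutant) binding to His-hSOS1, using anti-GST-Eu donor and anti-6His-XL665 acceptor in HEPES pH 7.4 buffer with DTT, BSA and Igepal. Read after about 10 min or longer; duplicate compound dilutions from 10 μM. IC50 from 665/620 nm ratio.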

[2] = target: T2, KRAS G12S (Homo sapiens, UniProt P01116, G12S); test: HTRF assay of K-Ras G12S interaction with SOS1 (PPI-HTRF); settings: 5 nM KRAS G12S, read-out: PPI-HTRF-5 nM KRAS G12S
T2 construct: made in house; host or cells: E. coli, e.g. BL21 (DE3)
T2 sequence (P01116 1-188 isoform P01116-2 G12S): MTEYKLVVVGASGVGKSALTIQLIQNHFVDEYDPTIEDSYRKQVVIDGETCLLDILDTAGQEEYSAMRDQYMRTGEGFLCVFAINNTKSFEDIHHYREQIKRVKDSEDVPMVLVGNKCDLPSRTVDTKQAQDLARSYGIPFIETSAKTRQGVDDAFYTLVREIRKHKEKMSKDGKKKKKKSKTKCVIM
Summary of the method: as §1

[3] = target: T3, KRAS G12D (Homo sapiens, UniProt P01116, G12D); test: HTRF assay of K-Ras G12D interaction with SOS1 (PPI-HTRF); settings: HTRF, 5 nM KRAS G12D; read-out: PPI-HTRF-5 nM KRAS G12D
T3 construct: made in house; host or cells: E. coli, e.g. BL21 (DE3)
T3 sequence (P01116 1-188 isoform P01116-2 G12D): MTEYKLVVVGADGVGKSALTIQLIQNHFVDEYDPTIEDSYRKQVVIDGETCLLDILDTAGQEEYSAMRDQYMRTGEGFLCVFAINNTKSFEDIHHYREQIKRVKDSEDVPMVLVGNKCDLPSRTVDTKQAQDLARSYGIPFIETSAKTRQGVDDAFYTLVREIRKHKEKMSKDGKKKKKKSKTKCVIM
Summary of the method: as §1

Measured: pIC50

T1 sequence (P01116 1-188 isoform P01116-2): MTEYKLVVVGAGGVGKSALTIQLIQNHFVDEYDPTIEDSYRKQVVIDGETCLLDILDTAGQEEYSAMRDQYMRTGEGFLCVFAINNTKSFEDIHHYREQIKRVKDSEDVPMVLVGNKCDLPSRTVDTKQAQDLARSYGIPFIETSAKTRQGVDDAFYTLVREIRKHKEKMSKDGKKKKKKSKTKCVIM

N#Cc1c(N)sc2c(F)ccc(-c3c(Cl)cc4c(N5CCOCC6(CCN6C(=O)n6cncn6)C5)nc(OC[C@@]56CCCN5C[C@H](F)C6)nc4c3F)c12 (stereo partly drawn) [Compound 351, 4-(4-(1-(1H-1,2,4-triazole-1-carbonyl)-6-oxa-1,9-diazaspiro[3.6]decan-9-yl)-6-chloro-8-fluoro-2-(((2R,7aS)-2-fluorotetrahydro-1H-pyrrolizin-7a(5H)-yl)methoxy)quinazolin-7-yl)-2-amino-7-fluorobenzo[b]thiophene-3-carbonitrile]
> 5.30: all assays above

CC(C)=C(C#N)C(=O)N1CCC12CCN(c1nc(OC[C@@]34CCCN3C[C@H](F)C4)nc3c(F)c(-c4ccc(F)c5sc(N)c(C#N)c45)c(Cl)cc13)C2 (stereo partly drawn) [Compound 297, 2-amino-4-(6-chloro-4-(1-(2-cyano-3-methylbut-2-enoyl)-1,6-diazaspiro[3.4]octan-6-yl)-8-fluoro-2-(((2R,7aS)-2-fluorotetrahydro-1H-pyrrolizin-7a(5H)-yl)methoxy)quinazolin-7-yl)-7-fluorobenzo[b]thiophene-3-carbonitrile]
> 5.30: all assays above

N#Cc1c(N)sc2c(F)ccc(-c3c(Cl)cc4c(N5CCC6(CCCN6)C5)nc(OC[C@@]56CCCN5C[C@H](F)C6)nc4c3F)c12 (stereo partly drawn) [Compound 284, 2-amino-4-(6-chloro-8-fluoro-2-(((2R,7aS)-2-fluorotetrahydro-1H-pyrrolizin-7a(5H)-yl)methoxy)-4-(1,7-diazaspiro[4.4]nonan-7-yl)quinazolin-7-yl)-7-fluorobenzo[b]thiophene-3-carbonitrile]
> 5.30: all assays above

N#Cc1c(N)sc2c(F)ccc(-c3c(Cl)cc4c(N5CC[C@]6(CCN6C(=O)n6cncn6)C5)nc(OC[C@@]56CCCN5C[C@H](F)C6)nc4c3F)c12 [Compound 305, 4-(4-((S)-1-(1H-1,2,4-triazole-1-carbonyl)-1,6-diazaspiro[3.4]octan-6-yl)-6-chloro-8-fluoro-2-(((2R,7aS)-2-fluorotetrahydro-1H-pyrrolizin-7a(5H)-yl)methoxy)quinazolin-7-yl)-2-amino-7-fluorobenzo[b]thiophene-3-carbonitrile]
> 5.30: all assays above

C#Cc1c(F)ccc2cc(O)cc(-c3ccc4c(N5CCC6(CCN6C(=O)n6cncn6)C5)nc(OC[C@@]56CCCN5C[C@H](F)C6)nc4c3F)c12 (stereo partly drawn) [Compound 277, (6-(7-(8-ethynyl-7-fluoro-3-hydroxynaphthalen-1-yl)-8-fluoro-2-(((2R,7aS)-2-fluorotetrahydro-1H-pyrrolizin-7a(5H)-yl)methoxy)quinazolin-4-yl)-1,6-diazaspiro[3.4]octan-1-yl)(1H-1,2,4-triazol-1-yl)methanone]
> 5.30: all assays above

Nc1nc2c(-c3ccc4c(N5CCC6(CCN6)CC5)nc(OC[C@@]56CCCN5C[C@H](F)C6)nc4c3F)ccc(F)c2s1 [Compound 204, 7-fluoro-4-(8-fluoro-2-(((2R,7aS)-2-fluorotetrahydro-1H-pyrrolizin-7a(5H)-yl)methoxy)-4-(1,7-diazaspiro[3.5]nonan-7-yl)quinazolin-7-yl)benzo[d]thiazol-2-amine]
> 5.30: all assays above

COCc1ncn(C(=O)N2CCC23CCN(c2nc(OC[C@@]45CCCN4C[C@H](F)C5)nc4c(F)c(-c5ccc(F)c6sc(N)c(C#N)c56)c(Cl)cc24)C3)n1 (stereo partly drawn) [Compound 313, 2-amino-4-(6-chloro-8-fluoro-2-(((2R,7aS)-2-fluorotetrahydro-1H-pyrrolizin-7a(5H)-yl)methoxy)-4-(1-(3-(methoxymethyl)-1H-1,2,4-triazole-1-carbonyl)-1,6-diazaspiro[3.4]octan-6-yl)quinazolin-7-yl)-7-fluorobenzo[b]thiophene-3-carbonitrile]
> 5.30: all assays above

N#Cc1c(N)sc2c(F)ccc(-c3c(Cl)cc4c(N5CCC6(CCN6C(=O)OC(CO)C(F)(F)F)C5)nc(OC[C@@]56CCCN5C[C@H](F)C6)nc4c3F)c12 (stereo partly drawn) [Compound 345, 1,1,1-trifluoro-3-hydroxypropan-2-yl 6-(7-(2-amino-3-cyano-7-fluorobenzo[b]thiophen-4-yl)-6-chloro-8-fluoro-2-(((2R,7aS)-2-fluorotetrahydro-1H-pyrrolizin-7a(5H)-yl)methoxy)quinazolin-4-yl)-1,6-diazaspiro[3.4]octane-1-carboxylate]
> 5.30: all assays above

N#Cc1c(N)sc2c(F)ccc(-c3c(Cl)cc4c(N5CCC6(CCN6C=O)C5)nc(OC[C@@]56CCCN5C[C@H](F)C6)nc4c3F)c12 (stereo partly drawn) [Compound 227, 2-amino-4-(6-chloro-8-fluoro-2-(((2R,7aS)-2-fluorotetrahydro-1H-pyrrolizin-7a(5H)-yl)methoxy)-4-(1-formyl-1,6-diazaspiro[3.4]octan-6-yl)quinazolin-7-yl)-7-fluorobenzo[b]thiophene-3-carbonitrile]
> 5.30: all assays above

C[C@H](Oc1nc(N2CC[C@@]3(CCN3C(=O)n3cncn3)C2)c2cc(Cl)c(-c3ccc(F)c4sc(N)c(C#N)c34)c(F)c2n1)[C@@H]1CCCN1C (single isomer, unassigned) [Compound 299]
> 5.30: all assays above

C[C@H](Oc1nc(N2CCCC3(CCN3C(=O)C3CC3(F)F)C2)c2cc(Cl)c(-c3ccc(F)c4sc(N)c(C#N)c34)c(F)c2n1)[C@@H]1CCCN1C (stereo partly drawn) [Compound 223, 2-Amino-4-(6-chloro-4-(1-(2,2-difluorocyclopropane-1-carbonyl)-1,6-diazaspiro[3.5]nonan-6-yl)-8-fluoro-2-((S)-1-((S)-1-methylpyrrolidin-2-yl)ethoxy)quinazolin-7-yl)-7-fluorobenzo[b]thiophene-3-carbonitrile]
> 5.30: all assays above

CN1CCC[C@H]1COc1nc(N2CCC3(CCN3C(=O)n3cncn3)C2)c2cc(Cl)c(-c3ccc(F)c4sc(N)c(C#N)c34)c(F)c2n1 (stereo partly drawn) [Compound 319, 4-(4-(1-(1H-1,2,4-triazole-1-carbonyl)-1,6-diazaspiro[3.4]octan-6-yl)-6-chloro-8-fluoro-2-(((S)-1-methylpyrrolidin-2-yl)methoxy)quinazolin-7-yl)-2-amino-7-fluorobenzo[b]thiophene-3-carbonitrile]
> 5.30: all assays above

COCC(=O)N1CCC12CCN(c1nc(O[C@@H](C)[C@@H]3CCCN3C)nc3c(F)c(-c4ccc(F)c5sc(N)c(C#N)c45)c(Cl)cc13)C2 (stereo partly drawn) [Compound 254, 2-amino-4-(6-chloro-8-fluoro-4-(1-(2-methoxyacetyl)-1,6-diazaspiro[3.4]octan-6-yl)-2-((S)-1-((S)-1-methylpyrrolidin-2-yl)ethoxy)quinazolin-7-yl)-7-fluorobenzo[b]thiophene-3-carbonitrile]
> 5.30: all assays above
